Activity and inhibition data for 13 compounds are collected here from ChEMBL document CHEMBL4138192, “Design, synthesis and evaluation of novel dihydrostilbene derivatives as potential anti-melanogenic skin-protecting agents” (Eur J Med Chem, 2018).

Data set [1] addresses T1, Tyrosinase (Mus musculus) (UniProt P11344).
T1 sequence (whole entry): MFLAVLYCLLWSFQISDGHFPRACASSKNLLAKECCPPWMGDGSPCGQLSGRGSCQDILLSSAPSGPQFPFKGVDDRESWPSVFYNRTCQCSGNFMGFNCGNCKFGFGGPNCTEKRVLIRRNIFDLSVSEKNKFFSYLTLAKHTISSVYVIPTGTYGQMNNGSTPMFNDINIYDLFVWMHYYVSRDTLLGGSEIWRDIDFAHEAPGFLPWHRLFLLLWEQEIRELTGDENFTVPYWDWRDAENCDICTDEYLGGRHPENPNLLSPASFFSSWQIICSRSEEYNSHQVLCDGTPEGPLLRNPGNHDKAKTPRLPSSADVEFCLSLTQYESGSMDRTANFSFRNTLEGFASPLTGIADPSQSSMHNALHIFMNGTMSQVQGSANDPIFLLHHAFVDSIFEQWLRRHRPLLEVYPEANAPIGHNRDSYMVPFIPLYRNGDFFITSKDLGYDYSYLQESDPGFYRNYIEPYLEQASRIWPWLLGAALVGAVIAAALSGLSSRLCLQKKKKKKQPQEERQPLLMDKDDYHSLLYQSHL
In words: Inhibition of tyrosinase in mouse B16 cells assessed as effect on alpha-MSH-induced melanin formation at 25 uM after 24 hrs relative to control. The arrangement: scale not given: the % may be the effect or the level left. The format is cell-based.

Data set [2] in a line: Growth inhibition of mouse B16 cells at 25 uM after 48 hrs by SRB assay relative to control. The format is cell-based. To be noted: read-out: GI. In general terms: Sulforhodamine B stains cellular protein and so reports cell mass.
Data set [3] concerns the target T2, Tyrosinase (Homo sapiens) (UniProt P14679).
T2 sequence (whole entry): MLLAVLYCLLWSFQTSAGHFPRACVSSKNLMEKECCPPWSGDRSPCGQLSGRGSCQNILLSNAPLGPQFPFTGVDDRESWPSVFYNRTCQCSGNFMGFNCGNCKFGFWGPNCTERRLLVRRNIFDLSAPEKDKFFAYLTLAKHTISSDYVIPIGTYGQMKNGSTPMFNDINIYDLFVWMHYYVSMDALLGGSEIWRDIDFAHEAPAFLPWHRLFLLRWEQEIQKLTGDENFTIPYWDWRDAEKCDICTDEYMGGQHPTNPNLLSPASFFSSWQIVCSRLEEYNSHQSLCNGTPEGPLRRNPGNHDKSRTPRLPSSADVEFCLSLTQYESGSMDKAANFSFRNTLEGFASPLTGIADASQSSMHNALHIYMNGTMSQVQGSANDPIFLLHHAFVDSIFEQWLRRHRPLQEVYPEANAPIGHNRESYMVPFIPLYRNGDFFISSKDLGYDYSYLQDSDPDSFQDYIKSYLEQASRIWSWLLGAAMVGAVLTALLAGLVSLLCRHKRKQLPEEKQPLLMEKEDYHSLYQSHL
Put plainly: Inhibition of tyrosinase in human A375 cells assessed as effect on alpha-MSH-induced melanin formation at 25 uM after 24 hrs relative to control. The format is cell-based. Also on record: scale not given: the % may be the effect or the level left.

Data set [4] is described as follows: Growth inhibition of human A375 cells at 25 uM after 48 hrs by SRB assay relative to control. The format is cell-based, A-375. To be noted: read-out: GI.
The test system of data set [5] is A-375. In words: Inhibition of alpha-MSH-induced TRP-2 expression in human A375 cells at 25 uM after 24 hrs by Western blot method. The format is functional, cell-based. (In general: Immunoblotting shows a protein as a band on a membrane.)
Data set [6] has as its system A-375. In words: Inhibition of alpha-MSH-induced TRP-1 expression in human A375 cells at 25 uM after 24 hrs by Western blot method. The format is functional, cell-based.
Data set [7] concerns A-375. In words: Inhibition of alpha-MSH-induced reactive oxygen species generation in human A375 cells at 25 uM after 4 hrs by DCFDA staining-based fluorescence assay. The format is functional, cell-based.
In data set [8] the target is T2, Tyrosinase (Homo sapiens). Put plainly: Inhibition of tyrosinase in human A375 cells at 25 uM using L-DOPA as substrate after 24 hrs by spectrophotometric method. The format is cell-based.
A short description of data set [9]: Antioxidant activity assessed as ABTS radical scavenging activity at 25 uM after 15 mins. The format is functional. Also on record: reference not given here.
Data set [10] deals with T1, Tyrosinase (Mus musculus). In words: Inhibition of tyrosinase in mouse B16 cells at 25 uM using L-DOPA as substrate after 24 hrs by spectrophotometric method. The format is cell-based.

The structures appear in SMILES notation. Active and inactive are the calls of the source. The rule behind the calls is not given here.

In the case of `CC(C)(C)C(=O)Oc1ccc(CCc2cc(OC(=O)C(C)(C)C)cc(OC(=O)C(C)(C)C)c2)cc1`, the figures for the Activity in [1] and in data set [3] were 93% and 94.6%, respectively. Also, the inhibition at 48 h, 25 µM worked out at 6.91% in data set [2] and 9.53% in data set [4].

Consider `O=C1O[C@H]([C@@H](O)CO)C(O)=C1O` [ASCORBIC ACID], for which the inhibition entry in the data set with A-375 [5] and with A-375 [6] was “Active” in each case. In addition, the results for the Activity in data set [1] and in [3] were 83.7% and 75%, respectively. Besides, the results for the inhibition at 48 h, 25 µM in data set [2] and in [4] were 4.94% and 8.63%, respectively.

As to `C=CC(=O)Oc1ccc(CCc2cc(OC(=O)C=C)cc(OC(=O)C=C)c2)cc1`, the inhibition entry (in the data set with A-375 [5]; in the data set with A-375 [7]; in data set [8]; in the data set on A-375 [6]; in [10]) was “Active” each time. The Activity came to 15.9 mg.equiv in data set [9], 76% in data set [1] and 50.5% in [3]. Moreover, the results for the inhibition at 48 h, 25 µM in [2] and in data set [4] were 13.9% and 15.6%, respectively.

Turning to `Oc1ccc(CCc2cc(O)cc(O)c2)cc1` [DIHYDRORESVERATROL], the inhibition result in the data set with A-375 [5], in the data set on A-375 [7] and in the data set on A-375 [6] was “Active” throughout. The Activity in data set [9] was 4970 mg.equiv; in data set [1] it was 78.3%; in data set [3], 78%. The inhibition at 48 h, 25 µM in [2] is 5.2%; in [4], 6.42%.

With `O=C(Oc1ccc(CCc2cc(OC(=O)c3ccccc3)cc(OC(=O)c3ccccc3)c2)cc1)c1ccccc1`, the Activity came to 87% in data set [1] and 85.2% in data set [3]. Besides, the inhibition at 48 h, 25 µM in data set [2] came to 4.92%; in data set [4], 4.55%.

For `O=C(Oc1ccc(CCc2cc(OC(=O)c3ccc(Cl)cc3)cc(OC(=O)c3ccc(Cl)cc3)c2)cc1)c1ccc(Cl)cc1`, the Activity in [1] turned out to be 99.2%; in [3] it was 93.4%. Besides, the inhibition at 48 h, 25 µM came to 5.26% in [2] and 21.5% in [4].

With `COc1ccc(C(=O)Oc2ccc(CCc3cc(OC(=O)c4ccc(OC)cc4)cc(OC(=O)c4ccc(OC)cc4)c3)cc2)cc1`, the Activity in data set [1] was 94.7%; in data set [3], 104%. In addition, the inhibition at 48 h, 25 µM in data set [2] came to 5.12%; in data set [4], 6.05%.

Regarding `O=C(Oc1ccc(CCc2cc(OC(=O)C3CCCC3)cc(OC(=O)C3CCCC3)c2)cc1)C1CCCC1`, the Activity amounted to 95.9% in data set [1] and 97.2% in data set [3]. In addition, the inhibition at 48 h, 25 µM in data set [2] stood at 9.69%; in data set [4] it was 14.3%.

Turning to `O=C(OCc1ccccc1)Oc1ccc(CCc2cc(OC(=O)OCc3ccccc3)cc(OC(=O)OCc3ccccc3)c2)cc1`, the Activity is 89.9% in [1] and 92.4% in [3]. The inhibition at 48 h, 25 µM in data set [2] is 5.12%; in data set [4], 6.35%.

In the case of `CCCOc1ccc(CCc2cc(OCCC)cc(OCCC)c2)cc1`, the Activity came out at 30.2 mg.equiv in data set [9], 94.7% in data set [1] and 85.1% in data set [3]. Besides, the inhibition at 48 h, 25 µM in data set [2] stood at 1.34%; in data set [4], 3.36%.

Take `C=CCOc1ccc(CCc2cc(OCC=C)cc(OCC=C)c2)cc1`: the inhibition entry in data set [8] is “Active”. Moreover, the Activity in data set [9] turned out to be 119 mg.equiv; in [1], 96.5%; in data set [3], 88.1%. Also, the inhibition at 48 h, 25 µM in [2] came out at 1.31%; in data set [4] it was 6.83%. Also, the inhibition entry in data set [10] was “inactive”.

Take `CCCC(=O)Oc1ccc(CCc2cc(OC(=O)CCC)cc(OC(=O)CCC)c2)cc1`: the inhibition entry in data set [8] was “Active”. In addition, the Activity in data set [9] was determined as 94.3 mg.equiv; in [1], 96.2%; in data set [3], 98.9%. Besides, the inhibition at 48 h, 25 µM in data set [2] is 4.81%; in data set [4], 17.9%. The inhibition result in [10] is “inactive”.

As to `Oc1ccc(/C=C/c2cc(O)cc(O)c2)cc1` [RESVERATROL], the inhibition entry in the data set with A-375 [5], with A-375 [7] and with A-375 [6] was “Active” throughout. In addition, the Activity came out at 80.2% in [1] and 80.4% in [3]. Besides, the inhibition at 48 h, 25 µM in data set [2] was 13.1%; in data set [4] it was 9.79%.
